Assay [1] addresses T1, NLRP3 (Homo sapiens, UniProt Q96P20).
T1 construct: host or cells: PMA-differentiated THP-1 cells
As to the kind of experiment: Measurement of IL-1β production in PMA-differentiated THP-1 cells (NLRP3 hIL1B). The class given is cell-based. In short, it runs like this: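 THP-1 cells differentiated with PMA, then replated in RPMI with 2% FBS and exposed to compound for 4 h (alternative: 2 h; hTRF protocol: 2 h at 37 °C, top concentration 10 μM). Supernatant IL-1β was quantified by ELISA or HTRF. Final DMSO 1%, with vehicle control.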

For assay [2], the target named is T2, human TLR8 (Homo sapiens, UniProt Q9NR97).
T2 construct: host or cells: human HEK-Blue cells with NF-kB/AP1-inducible SEAP reporter
T2 sequence (Q9NR97 27-1041): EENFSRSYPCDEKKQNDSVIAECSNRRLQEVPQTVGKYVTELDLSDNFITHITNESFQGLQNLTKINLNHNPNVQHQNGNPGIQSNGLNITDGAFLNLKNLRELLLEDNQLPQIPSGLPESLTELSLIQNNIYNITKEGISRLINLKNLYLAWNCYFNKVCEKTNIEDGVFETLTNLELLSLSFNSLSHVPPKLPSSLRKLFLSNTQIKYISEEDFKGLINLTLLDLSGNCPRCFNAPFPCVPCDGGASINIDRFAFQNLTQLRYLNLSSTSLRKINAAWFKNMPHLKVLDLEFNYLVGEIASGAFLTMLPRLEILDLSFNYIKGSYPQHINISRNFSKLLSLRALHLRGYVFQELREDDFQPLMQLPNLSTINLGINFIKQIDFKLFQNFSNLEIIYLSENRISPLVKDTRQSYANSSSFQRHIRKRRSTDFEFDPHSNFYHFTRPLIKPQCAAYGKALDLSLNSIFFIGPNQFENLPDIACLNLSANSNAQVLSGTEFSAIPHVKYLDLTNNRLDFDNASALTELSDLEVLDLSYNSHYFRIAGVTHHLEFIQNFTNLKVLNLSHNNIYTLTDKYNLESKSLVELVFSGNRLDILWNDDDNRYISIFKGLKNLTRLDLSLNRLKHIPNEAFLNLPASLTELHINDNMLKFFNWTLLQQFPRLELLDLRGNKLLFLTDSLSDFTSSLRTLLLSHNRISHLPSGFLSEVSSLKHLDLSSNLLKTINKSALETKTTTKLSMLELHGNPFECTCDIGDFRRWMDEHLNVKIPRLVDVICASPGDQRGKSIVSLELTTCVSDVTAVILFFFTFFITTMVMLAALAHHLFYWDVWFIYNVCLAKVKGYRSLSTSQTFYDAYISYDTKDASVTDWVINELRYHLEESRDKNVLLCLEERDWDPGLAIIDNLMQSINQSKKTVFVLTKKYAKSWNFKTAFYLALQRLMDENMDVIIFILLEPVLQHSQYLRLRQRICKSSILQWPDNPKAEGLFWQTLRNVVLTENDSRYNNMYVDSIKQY
Put plainly: In vitro human TLR8 reporter assay (HEK-Blue, NF-kB/AP1-inducible SEAP). The class given is cell-based. The note with it: at 50 μM. The method, then:
In Vitro Human TLR7 and TLR8 Binding Reporter Assays Logarithmically-growing human HEK-Blue cells co-expressing a TLR7 or TLR8 gene and a NF-kB/AP1-inducible SEAP (secreted embryonic alkaline phosphatase; […] Cellular SEAP production is measured using an Envision plate reader instrument thirty minutes after adding freshly-made Quanti-Blue reagent (prepared by following manufacturer instructions; Invivogen, San Diego, CA) to the HEK-Blue TLR Nf-kB-SEAP cell reactions. All EC50 values (half-maximal effective concentration) are determined using proprietary data analysis software.

By EC50 is commonly meant the midpoint of the concentration-response curve.

T1 sequence (Q96P20 whole entry): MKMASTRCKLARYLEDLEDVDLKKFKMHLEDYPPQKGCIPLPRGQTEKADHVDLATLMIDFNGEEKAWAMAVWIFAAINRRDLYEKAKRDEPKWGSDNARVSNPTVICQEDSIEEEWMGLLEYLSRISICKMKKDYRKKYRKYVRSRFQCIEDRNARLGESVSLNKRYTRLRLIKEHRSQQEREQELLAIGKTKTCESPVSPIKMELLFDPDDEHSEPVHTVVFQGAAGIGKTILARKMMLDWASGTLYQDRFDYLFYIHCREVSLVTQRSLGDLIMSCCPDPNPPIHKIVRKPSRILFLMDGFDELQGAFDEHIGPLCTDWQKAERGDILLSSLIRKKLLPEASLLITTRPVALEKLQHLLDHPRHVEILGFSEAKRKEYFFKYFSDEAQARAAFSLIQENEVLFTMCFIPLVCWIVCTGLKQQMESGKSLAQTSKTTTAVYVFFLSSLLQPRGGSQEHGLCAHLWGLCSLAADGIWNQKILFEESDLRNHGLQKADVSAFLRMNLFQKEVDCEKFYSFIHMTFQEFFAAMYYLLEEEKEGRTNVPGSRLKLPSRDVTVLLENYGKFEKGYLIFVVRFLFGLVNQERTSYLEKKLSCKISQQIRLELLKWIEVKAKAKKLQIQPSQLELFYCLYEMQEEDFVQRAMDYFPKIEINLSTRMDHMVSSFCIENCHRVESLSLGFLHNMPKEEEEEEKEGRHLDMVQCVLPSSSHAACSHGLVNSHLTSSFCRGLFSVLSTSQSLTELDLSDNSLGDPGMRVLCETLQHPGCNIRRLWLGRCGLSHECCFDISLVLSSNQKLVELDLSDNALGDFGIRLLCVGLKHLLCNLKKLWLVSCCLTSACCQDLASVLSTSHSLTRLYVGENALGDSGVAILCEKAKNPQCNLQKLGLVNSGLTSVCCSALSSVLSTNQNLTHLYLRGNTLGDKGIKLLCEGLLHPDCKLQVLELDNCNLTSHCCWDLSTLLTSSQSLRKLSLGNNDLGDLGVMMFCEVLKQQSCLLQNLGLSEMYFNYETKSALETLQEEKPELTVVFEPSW

For the molecule `Nc1nc(OCCO)c2ccc(-c3ccn[nH]3)cc2n1` [Example 4, 2-((2-amino-7-(1H-pyrazol-3-yl)quinazolin-4-yl)oxy)ethan-1-ol], the midpoint of the response in assay [1], the EC50, lay at 6.54 µM. For the same molecule, the TLR8 agonist activity in assay [2] is less than 50%.

Source of the values: patent US12187706B2, “NLRP3 modulators” (INNATE TUMOR IMMUNITY, INC., priority 2019, dated 2025).
